How the values were obtained:
[1] = target: T1, PD-1/PD-L1 (Homo sapiens, UniProt Q9NZQ7); assay: PD-1/PD-L1 binding assay (HTRF, PPI-HTRF); conditions: HTRF PD1/PD-L1 binding assay kit; 10 nM Tag1-PD-L1; 25° C.
T1 construct: purchased Cisbio 63ADK000CPDPEB
Experimental: Assay 1 PD-1/PD-L1 Binding Assay
DMSO is from Sigma, Cat No: D5879; 384-well small volume plate (white) is from Greiner, Cat No: 784075; Anti-PD1 blocking antibody (IC50: 10 nM) is from Cisbio, Cat No: 64CUS000C-1a; Anti-PDL1 blocking antibody (IC50: 0.3 nM) is from Cisbio, Cat No: 64CUS000C-1b; HTRF PD1/PD-L1 binding assay kit is from Cisbio, Cat No: 63ADK000CPDPEB.
1. Prepare the compound to be tested at 2x concentration into 1× reaction buffer containing 4% DMSO;
2. Tag1-PD-L1 protein and Tag2-PD1 protein were prepared in 1× reaction buffer at concentrations of […] and 10 nM, respectively. The final reaction concentration of the experiment was 10 nM Tag1-PD-L1 and 2 nM […];
3. anti-Tag1-Eu3+ antibody is prepared in 1x concentration detection buffer at a ratio of 1:100;
4. anti-Tag2-XL665 antibody is prepared in 1x concentration detection buffer at a ratio of 1:25; Experimental steps
1. 5 μL of compounds to be tested (2×) was added;
2. 2.5 ul Tag1-PD-L1 protein and 2.5 ul Tag2-PD1 protein were added respectively, and the total reaction system is 10 ul, and reacted at 25° C. for 15 minutes;
3. 5 ul anti-Tag1-Eu3+ antibody and 5 ul anti-Tag2-XL665 antibody were added respectively, and reacted at 25° C. for 16 hours;
4. The fluorescence microplate reader HTRF reading program was used to read two readings at 665 nm and 620 nm, the ratio of the two wavelengths was used to judge the activity of the compound, and the IC50 of the compound to be tested is calculated by XLFIT5.0 (IDBS).

[2] = test system: Jurkat T(PD1 Luc-)/CHOK1(PDL-1); assay: Jurkat T(PD1 Luc-)/CHOK1(PDL-1) cell experiment (luciferase reporter); assay type: cell-based; conditions: CHO/PD-L1-OKT3 cells co-cultured with Jurkat/PD1-NFAT-Luc cells for 6 hours; Bio-Glo luciferase signal
Experimental: Assay 2 Jurkat T(PD1 Luc-)/CHOK1(PDL-1) Cell Experiment
G418, Sangon Biotech #A100859-0001, Cat Number G108BA0003, 5 ml of deionized water being added into each bottle, store at 4° C.
CHO/PD-L1-OKT3 cells (constructed by referring to Promega's PD-1/PD-L1 Blockade Bioassays system) cultured in F-12K medium (containing 10% FBS, 800 ug/ml G418, 400 ug/ml D Hygromycin B) were planted into a 96-well plate at 2×10^4 per well, and incubated for 24 hours at 37° C. and 5% CO2. part of the medium was removed, and the test compound dissolved in DMSO with a final concentration of 1 uM was added, and DMSO at the same concentration was added into the control cells. Jurkat/PD1-NFAT-Luc cells (constructed by referring to Promega's PD-1/PD-L1 Blockade Bioassays system) were added at 5×10^5 per well at the same time, and cultured for 6 hours. The corresponding luciferase signal was detected by Bio-Glo™ (Promega, G7940) reagent. The EC50 of each compound to be tested was calculated through the non-linear regression of XLfit software.

T1 sequence (Q9NZQ7 19-238 limits assumed): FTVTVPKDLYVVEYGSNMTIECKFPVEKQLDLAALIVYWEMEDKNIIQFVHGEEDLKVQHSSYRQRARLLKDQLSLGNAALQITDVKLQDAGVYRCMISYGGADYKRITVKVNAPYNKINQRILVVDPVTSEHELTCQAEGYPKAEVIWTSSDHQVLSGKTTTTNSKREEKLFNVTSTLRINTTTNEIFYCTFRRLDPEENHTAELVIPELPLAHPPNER

**Q.** With `Cc1cc(/C=C/c2nccc(-c3cccc(NC(=O)c4ccc(CNCCO)cn4)c3C)c2C#N)c(Cl)cc1CNCCO` [Z-1, (E)-N-(3-(2-(2-chloro-4-(((2-hydroxyethyl)amino)methyl)-5-methylstyryl)-3-cyanopyridin-4-yl)-2-methylphenyl)-5-(((2-hydroxyethyl)amino)methyl)picolinamide] as the compound, how does the IC50 [1] read?
**A.** 1 nM

**Q.** What about the EC50 [2] of the same compound?
**A.** 162 nM

**Q.** Which results are given for `Cc1cc(/C=C/c2nccc(-c3cccc(NC(=O)c4ccc(CNCCO)cn4)c3C)c2C#N)c(Cl)cc1CN1CCCC[C@H]1C(=O)O` [Z-2, (S, E)-1-(5-chloro-4-(2-(3-cyano-4-(3-(5-(((2-hydroxyethyl)amino)methyl)picolinamido)-2-methylphenyl)pyridin-2-yl)vinyl)-2-methylbenzyl)piperidine-2-carboxylic Acid]?
**A.** IC50 [1]: 1 nM; EC50 [2]: 79 nM

**Q.** Which IC50 [1] does the source give for `COc1cc(/C=C/c2cccc(-c3cccc(Nc4nccc5cc(CN6CC[C@@H](O)C6)cnc45)c3C)c2C)c(C(F)(F)F)cc1CN1CC[C@@H](C(=O)O)C1` [Z-8] here?
**A.** 2 nM

**Q.** And the EC50 [2]?
**A.** 47 nM

**Q.** For `Cc1cc(/C=C/c2cccc(-c3cccc(Nc4nccc5cc(CN6CC[C@@H](O)C6)cnc45)c3C)c2C)c(C(F)(F)F)cc1CN1CC[C@@H](C(=O)O)C1` [Z-9], which IC50 [1] is on record?
**A.** 1 nM

**Q.** And the EC50 [2]?
**A.** 48 nM

**Q.** Which results are given for `COc1cc(/C=C/c2cccc(-c3cccc(Nc4nccc5cc(CN6CC[C@@H](O)C6)cnc45)c3C)c2C)c(C(F)(F)F)cc1CN1CCC[C@H]1C(=O)O` [Z-11]?
**A.** IC50 [1]: 1 nM; EC50 [2]: 137 nM

**Q.** How did the IC50 [1] turn out when `COc1cc(/C=C/c2ccnc(-c3cccc(Nc4nccc5cc(CN6CC[C@@H](O)C6)cnc45)c3C)c2Cl)c(C(F)(F)F)cc1CN1CC[C@@H](C(=O)O)C1` [Z-12] was run?
**A.** 1 nM

**Q.** And the EC50 [2]?
**A.** 153 nM

**Q.** How did the EC50 [2] turn out when `CCOC(=O)[C@@H]1CCN(Cc2cc(C#N)c3oc(-c4cccc(-c5cccc(/C=C/c6cc(OC)c(CN7CC[C@@H](O)C7)cc6C(F)(F)F)c5C)c4C)nc3c2)C1` [Z-45] was run?
**A.** 70 nM

**Q.** With `Cc1cc(/C=C/c2nccc(-c3cccc(-c4nc5cc(CN6CCC(C(=O)O)C6)cc(Cl)c5o4)c3C)c2C#N)c(C(F)(F)F)cc1CN1CC[C@@H](O)C1` (stereo partly drawn) [Z-48] as the compound, how does the EC50 [2] read?
**A.** 70 nM

**Q.** For `COc1cc(/C=C/c2cccc(-c3cccc(-c4cnc(CNC[C@@H]5CCC(=O)N5)c(OC)n4)c3Cl)c2C)c(C(F)(F)F)cc1CN1CC[C@@H](C(=O)O)C1` [Z-58], which EC50 [2] is on record?
**A.** 78 nM

**Q.** Which IC50 [1] does the source give for `Cc1cc(/C=C/c2nccc(-c3cccc(NC(=O)c4ccc(CN5CCOCC5)cn4)c3C)c2C#N)c(Cl)cc1CN1CC[C@@H](C(=O)O)C1` [Z-70, (R,E)-1-(5-chloro-4-(2-(3-cyano-4-(2-methyl-3-(5-(morpholinomethyl)picolinamido)phenyl)pyridin-2-yl)vinyl)-2-methylbenzyl)pyrrolidine-3-carboxylic Acid] here?
**A.** 3 nM

**Q.** How did the IC50 [1] turn out when `Cc1cc(/C=C/c2nccc(-c3cccc(NC(=O)c4ccc(CN5CCOCC5)cn4)c3C)c2C#N)c(Cl)cc1CN1CCCC[C@H]1C(=O)O` [Z-71] was run?
**A.** 5 nM

**Q.** Which IC50 [1] does the source give for `Cc1cc(CN2CCCC[C@H]2C(=O)O)c(C)cc1/C=C/c1nccc(-c2cccc(NC(=O)c3ccc(CN4CC[C@@H](O)C4)cn3)c2C)c1C#N` [Z-72] here?
**A.** 2 nM

**Q.** How did the IC50 [1] turn out when `Cc1cc(/C=C/c2nccc(-c3cccc(NC(=O)c4nc5c(n4C)CCN(C4CCOCC4)C5)c3C)c2C#N)c(Cl)cc1CN1CCCC[C@H]1C(=O)O` [Z-73, (S, E)-1-(5-chloro-4-(2-(3-cyano-4-(2-methyl-3-(l-methyl-5-(tetrahydro-2H-pyran-4-yl)-4,5,6,7-tetrahydro-1H-imidazo[4,5-c]pyridine-2-carboxamido)phenyl)pyridin-2-yl)vinyl)-2-methylbenzyl) piperidine-2-carboxylic Acid] was run?
**A.** 2 nM

**Q.** For `COc1cc(/C=C/c2nccc(-c3cccc(NC(=O)c4ccc(CN5CC[C@@H](O)C5)cn4)c3C)c2C#N)cc(OC)c1CN1CCCC[C@H]1C(=O)O` [Z-75], which IC50 [1] is on record?
**A.** 36 nM

**Q.** For `Cc1cc(/C=C/c2nccc(-c3cccc(NC(=O)c4ccc(CN5CC[C@@H](O)C5)cn4)c3C)c2C#N)c(Cl)cc1CN1CC2(CC(C(=O)O)C2)C1` [Z-78, (R,E)-2-(5-chloro-4-(2-(3-cyano-4-(3-(5-((3-hydroxypyrrolidin-1-yl)methyl)picolinamido)-2-methylphenyl)pyridin-2-yl)vinyl)-2-methylbenzyl)-2-azaspiro[3.3]heptane-6-carboxylic Acid], which IC50 [1] is on record?
**A.** 13 nM

**Q.** How did the IC50 [1] turn out when `Cc1cc(/C=C/c2nccc(-c3cccc(NC(=O)c4ccc(CN5CC[C@@H](O)C5)cn4)c3C)c2C#N)c(C2CC2)cc1CN1CC[C@@H](C(=O)O)C1` [Z-79, (R)-1-(4-((E)-2-(3-cyano-4-(3-(5-(((R)-3-hydroxypyrrolidin-1-yl)methyl)picolinamido)-2-methylphenyl)pyridin-2-yl)vinyl)-5-cyclopropyl-2-methylbenzyl)pyrrolidine-3-carboxylic Acid] was run?
**A.** 1 nM

**Q.** With `Cc1cc(/C=C/c2cccc(-c3cccc(NC(=O)c4ccc(CN5CC[C@@H](O)C5)cn4)c3C)c2C(F)(F)F)c(Cl)cc1CN1CC[C@@H](C(=O)O)C1` [Z-88] as the compound, how does the IC50 [1] read?
**A.** 3 nM

**Q.** How did the IC50 [1] turn out when `COc1cc(/C=C/c2cccc(-c3cccc(NC(=O)c4ccc(CN5CC[C@@H](O)C5)cn4)c3F)c2F)c(C(F)(F)F)cc1CN1CC[C@@H](C(=O)O)C1` [Z-100] was run?
**A.** 1 nM

**Q.** How did the IC50 [1] turn out when `COc1cc(/C=C/c2cccc(-c3cccc(NC(=O)c4ccc(CN5CC[C@@H](O)C5)cn4)c3C#N)c2Cl)c(C(F)(F)F)cc1CN1CC[C@@H](C(=O)O)C1` [Z-104] was run?
**A.** 1 nM

**Q.** Which IC50 [1] does the source give for `COc1cc(/C=C/c2cccc(-c3cccc(NC(=O)c4ccc(CN5CC[C@@H](O)C5)c(OC)n4)c3C)c2C)c(C(F)(F)F)cc1CN1CCC[C@H]1C(=O)O` [Z-116] here?
**A.** 3 nM

**Q.** Which IC50 [1] does the source give for `COc1cc(/C=C/c2cccc(-c3cccc(NC(=O)c4ccc(CN5CC[C@@H](O)C5)cc4)c3C)c2C)c(C(F)(F)F)cc1CN1CC[C@@H](C(=O)O)C1` [Z-123] here?
**A.** 1 nM

**Q.** For `COc1cc(/C=C/c2cccc(-c3cccc(NC(=O)c4nc5c(n4C)CCN(C)C5)c3C)c2C)c(C(F)(F)F)cc1CN1CC[C@@H](C(=O)O)C1` [Z-126, (R,E)-1-(4-(2-(3′-(1,5-dimethyl-4,5,6,7-tetrahydro-1H-imidazo[4,5-c]pyridine-2-carboxamido)-2,2′-dimethyl-[1,1′-biphenyl]-3-yl)vinyl)-2-methoxy-5-(trifluoromethyl)benzyl)pyrrolidine-3-carboxylic Acid], which IC50 [1] is on record?
**A.** 1 nM

**Q.** With `COc1cc(C(=O)Nc2cccc(-c3cccc(/C=C/c4cc(C)c(CN5CC[C@@H](C(=O)O)C5)cc4C(F)(F)F)c3C)c2C)ncc1CN1CC[C@@H](O)C1` [Z-127] as the compound, how does the IC50 [1] read?
**A.** 1 nM

**Q.** For `COc1cc(/C=C/c2cccc(-c3cccc(NC(=O)c4cn5c(n4)CN(C)CC5)c3C)c2C)c(C(F)(F)F)cc1CN1CCC(C(=O)O)C1` (stereo not drawn) [Z-129, (E)-1-(4-(2-(2,2′-dimethyl-3′-(7-methyl-5,6,7,8-tetrahydroimidazo[1,2-a]pyrazine-2-carboxamido)-[1,1′-biphenyl]-3-yl)vinyl)-2-methoxy-5-(trifluoromethyl)benzyl)pyrrolidine-3-carboxylic Acid], which IC50 [1] is on record?
**A.** 1 nM

**Q.** For `COc1cc(/C=C/c2cccc(-c3cccc(NC(=O)c4cc(OC)c(CN5CC[C@@H](O)C5)cn4)c3C)c2C)c(C(F)(F)F)cc1CN1CC(C(=O)O)C1` [Z-130], which IC50 [1] is on record?
**A.** 1 nM

**Q.** For `COc1cc(/C=C/c2cccc(-c3cccc(NC(=O)c4cc(OC)c(CN5CC[C@@H](C(=O)O)C5)cn4)c3C)c2C)c(C(F)(F)F)cc1CN1CC[C@@H](O)C1` [Z-136], which IC50 [1] is on record?
**A.** 5 nM

**Q.** For `COc1cc(/C=C/c2cccc(-c3cccc(NC(=O)c4cc(OC)c(CN5CC[C@@H](O)C5)cn4)c3C)c2C)c(C(F)(F)F)cc1CN1CCC(C(=O)NS(C)(=O)=O)C1` (stereo partly drawn) [Z-139], which EC50 [2] is on record?
**A.** 7 nM
